What was measured:
wheat = test: Test B pre/postemergence wheat; format: in vivo, Triticum aestivum
How it was run: (§1)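 Test chemicals in a non-phytotoxic solvent mixture with surfactant were sprayed preemergence onto planted seeds and postemergence onto plants 2 to 18 cm tall (1- to 4-leaf stage). After twelve to sixteen days in a greenhouse, injury was visually rated against untreated controls from 0 (no effect) to 10 (complete control).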

sugar beet = test: Test B pre/postemergence sugar beet; format: in vivo, Beta vulgaris
How it was run: as §1

rape = test: Test B pre/postemergence rape; format: in vivo, Brassica napus
How it was run: as §1

soybean = test: Test B pre/postemergence soybean; format: in vivo, Glycine max
How it was run: as §1

bamyardgrass = test: Test B flood test barnyardgrass; format: in vivo, Echinochloa crus-galli
How it was run: (§2)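 Each value is a visual injury score relative to controls, with 10 meaning complete control and 0 no effect. Evaluation took place twelve to sixteen days after the 2-leaf-stage plants were treated and kept in the greenhouse.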

wild oat = test: Test B pre/postemergence wild oat; format: in vivo, Avena fatua
How it was run: as §1

purple nutsedge = test: Test B pre/postemergence purple nutsedge; format: in vivo, Cyperus rotundus; details: Preemergence
How it was run: as §1

rice = test: Test B flood test rice; format: in vivo, Oryza sativa
How it was run: as §2

velvetleaf = test: Test B pre/postemergence velvetleaf; format: in vivo, Abutilon theophrasti
How it was run: as §1

pigweed = test: Test B pre/postemergence pigweed; format: in vivo, Amaranthus retroflexus
How it was run: as §1

giant foxtail = test: Test B pre/postemergence giant foxtail; format: in vivo, Setaria faberii
How it was run: as §1

crabgrass = test: Test B pre/postemergence crabgrass; format: in vivo, Digitaria sanguinalis
How it was run: as §1

cocklebur = test: Test B pre/postemergence cocklebur; format: in vivo, Xanthium strumarium
How it was run: as §1

morningglory = test: Test B pre/postemergence morningglory; format: in vivo, Ipomoea hederacea
How it was run: as §1

corn = test: Test B pre/postemergence corn; format: in vivo, Zea mays
How it was run: as §1

duck salad = test: Test B flood test duck salad; format: in vivo, Heteranthera limosa
How it was run: as §2

[1] = Postemergence, Rate 250 g/ha, scale 0 to 10, 0 no effect, 10 complete control
[2] = Postemergence, Rate 1000 g/ha, scale 0 to 10 (0 no effect, 10 complete control)
[3] = Preemergence, Rate 125 g/ha, scale 0 to 10 (0 no effect, 10 complete control)
[4] = Preemergence, Rate 250 g/ha, scale of 0 to 10 where 0 is no effect and 10 is complete control
[5] = Preemergence, Rate 500 g/ha, scale 0 (no effect) to 10 (complete control)
[6] = Rate 125 g/ha, Postemergence, scale 0 to 10, 0 no effect, 10 complete control
[7] = Rate 1000 g/ha, Preemergence, scale 0 to 10 (0 no effect, 10 complete control)
[8] = Rate 500 g/ha, Postemergence, 0 to 10 scale (0 no effect, 10 complete control)
[9] = Rate 125 g/ha, Postemergence section (flood test species), scale 0 to 10, 0 no effect, 10 complete control
[10] = Rate 500 g/ha, Postemergence section of Table B, 0 to 10 scale (0 no effect, 10 complete control)
[11] = flood test, listed under Postemergence, Rate 250 g/ha, scale 0 to 10, 0 no effect, 10 complete control

Compound: COc1ccc(-n2c(=O)on(C(=O)N(C3=CCOCC3)C(C)C)c2=O)cc1 [Compound 6]
- Wheat plant response rating (wheat; [1]): 0
- Wheat plant response rating (wheat; [2]): 0
- Plant response rating, Wheat (wheat; [3]): 0
- Plant response rating, Wheat (wheat; [4]): 0
- Wheat plant response rating (wheat; [5]): 0
- Wheat plant response rating (wheat; [6]): 0
- Plant response rating, Wheat (wheat; [7]): 3
- Sugarbeets plant response rating (sugar beet; [1]): 0
- Sugarbeets plant response rating (sugar beet; [2]): 3
- Plant response rating, Sugarbeets (sugar beet; [3]): 0
- Plant response rating, Sugarbeets (sugar beet; [4]): 0
- Sugarbeets plant response rating (sugar beet; [5]): 0
- Sugarbeets plant response rating (sugar beet; [6]): 0
- Plant response rating, Sugarbeets (sugar beet; [7]): 0
- Rape plant response rating (rape; [1]): 0
- Rape plant response rating (rape; [2]): 2
- Plant response rating, Rape (rape; [3]): 0
- Plant response rating, Rape (rape; [4]): 0
- Rape plant response rating (rape; [5]): 0
- Rape plant response rating (rape; [6]): 0
- Rape plant response rating (rape; [8]): 0
- Plant response rating, Rape (rape; [7]): 0
- Soybean plant response rating (soybean; [1]): 3
- Soybean plant response rating (soybean; [2]): 6
- Plant response rating, Soybean (soybean; [3]): 0
- Plant response rating, Soybean (soybean; [4]): 0
- Soybean plant response rating (soybean; [5]): 0
- Soybean plant response rating (soybean; [6]): 3
- Plant response rating, Soybean (soybean; [7]): 0
- Barnyardgrass plant response rating (bamyardgrass; [2]): 8
- Barnyardgrass plant response rating (bamyardgrass; [9]): 0
- Barnyardgrass plant response rating (bamyardgrass; [10]): 0
- Barnyardgrass plant response rating (bamyardgrass; [11]): 0
- Wild oats plant response rating (wild oat; [1]): 0
- Wild oats plant response rating (wild oat; [2]): 4
- Plant response rating, Wild oats (wild oat; [3]): 0
- Plant response rating, Wild oats (wild oat; [4]): 0
- Wild oats plant response rating (wild oat; [5]): 3
- Wild oats plant response rating (wild oat; [6]): 0
- Plant response rating, Wild oats (wild oat; [7]): 6
- Plant response rating, Nutsedge (purple nutsedge; Rate 125 g/ha, scale 0 to 10 (0 no effect, 10 complete control)): 0
- Plant response rating, Nutsedge (purple nutsedge; Rate 250 g/ha, scale of 0 to 10 where 0 is no effect and 10 is complete control): 0
- Nutsedge plant response rating (purple nutsedge; Rate 500 g/ha, scale 0 (no effect) to 10 (complete control)): 0
- Plant response rating, Nutsedge (purple nutsedge; Rate 1000 g/ha, scale 0 to 10 (0 no effect, 10 complete control)): 0
- Rice plant response rating (rice; [2]): 3
- Rice plant response rating (rice; [9]): 0
- Rice plant response rating (rice; [10]): 0
- Rice plant response rating (rice; [11]): 0
- Velvetleaf plant response rating (velvetleaf; [1]): 0
- Velvetleaf plant response rating (velvetleaf; [2]): 1
- Plant response rating, Velvetleaf (velvetleaf; [3]): 0
- Plant response rating, Velvetleaf (velvetleaf; [4]): 2
- Velvetleaf plant response rating (velvetleaf; [5]): 2
- Velvetleaf plant response rating (velvetleaf; [6]): 0
- Plant response rating, Velvetleaf (velvetleaf; [7]): 4
- Redroot pigweed plant response rating (pigweed; [1]): 0
- Redroot pigweed plant response rating (pigweed; [2]): 4
- Plant response rating, Redroot pigweed (pigweed; [3]): 5
- Plant response rating, Redroot pigweed (pigweed; [4]): 5
- Redroot pigweed plant response rating (pigweed; [5]): 7
- Redroot pigweed plant response rating (pigweed; [6]): 0
- Redroot pigweed plant response rating (pigweed; [8]): 0
- Plant response rating, Redroot pigweed (pigweed; [7]): 7
- Giant foxtail plant response rating (giant foxtail; [1]): 4
- Giant foxtail plant response rating (giant foxtail; [2]): 7
- Plant response rating, Giant foxtail (giant foxtail; [3]): 3
- Plant response rating, Giant foxtail (giant foxtail; [4]): 4
- Giant foxtail plant response rating (giant foxtail; [5]): 9
- Giant foxtail plant response rating (giant foxtail; [6]): 2
- Giant foxtail plant response rating (giant foxtail; [8]): 5
- Plant response rating, Giant foxtail (giant foxtail; [7]): 9
- Crabgrass plant response rating (crabgrass; [1]): 2
- Crabgrass plant response rating (crabgrass; [2]): 7
- Plant response rating, Crabgrass (crabgrass; [3]): 7
- Crabgrass plant response rating (crabgrass; [5]): 9
- Crabgrass plant response rating (crabgrass; [6]): 0
- Crabgrass plant response rating (crabgrass; [8]): 5
- Plant response rating, Crabgrass (crabgrass; [7]): 10
- Cocklebur plant response rating (cocklebur; [1]): 0
- Cocklebur plant response rating (cocklebur; [2]): 0
- Plant response rating, Cocklebur (cocklebur; [3]): 0
- Plant response rating, Cocklebur (cocklebur; [4]): 0
- Cocklebur plant response rating (cocklebur; [5]): 0
- Cocklebur plant response rating (cocklebur; [6]): 0
- Cocklebur plant response rating (cocklebur; [8]): 0
- Plant response rating, Cocklebur (cocklebur; [7]): 2
- Morningglory plant response rating (morningglory; [1]): 2
- Morningglory plant response rating (morningglory; [2]): 7
- Plant response rating, Morningglory (morningglory; [3]): 0
- Plant response rating, Morningglory (morningglory; [4]): 0
- Morningglory plant response rating (morningglory; [5]): 0
- Morningglory plant response rating (morningglory; [6]): 0
- Morningglory plant response rating (morningglory; [8]): 5
- Plant response rating, Morningglory (morningglory; [7]): 0
- Corn plant response rating (corn; [1]): 0
- Corn plant response rating (corn; [2]): 4
- Plant response rating, Corn (corn; [3]): 0
- Plant response rating, Corn (corn; [4]): 1
- Corn plant response rating (corn; [5]): 2
- Corn plant response rating (corn; [6]): 0
- Corn plant response rating (corn; [8]): 0
- Plant response rating, Corn (corn; [7]): 5
- Ducksalad plant response rating (duck salad; [2]): 0
- Ducksalad plant response rating (duck salad; [9]): 0
- Ducksalad plant response rating (duck salad; [10]): 0
- Ducksalad plant response rating (duck salad; [11]): 0

Source: US6737383B1, “Herbicidal oxadiazolidines” (priority 1999, dated 2004)
